Patent publication US20110207796A1, “ALPHA-SYNUCLEIN KINASE” (Elan Pharma International Limited, priority 2008, published 2011)
Where two headings read alike, the source gives them in different places.

Key:
[1] = molecular target: synuclein phosphorylation by endogenous kinase; assay: kinase inhibitor treatment of mouse cortical cultures (MCC), total and phospho-synuclein ELISA; assay type: cell-based
Experimental: Mouse cortical cultures from fetal (i) Swiss-Webster, (ii) C56BL/6 WT and (iii) C56BL/6 E46K-Synuclein Trangenic mice were prepared and maintained in B27/DMEM/1% Penicillin-Streptomycin at 37° C./10% CO2 for three to fourteen days and then treated with kinase inhibitors.
Cultures were exposed to inhibitors for two hours in B27/DMEM/1% Penicillin-Streptomycin. Cells were immediately washed in 100 μL of PBS plus Mg^2+ and Ca^2+, and harvested in ice-cold CEB minus EGTA plus protease inhibitors, frozen on dry ice and stored at −80° C. until processed. A Micro BCA (Pierce) total protein assay, and total synuclein and phospho-synuclein ELISAs were performed on each plate of treated cells using standard methods.

[2] = molecular target: synuclein phosphorylation by endogenous kinase; assay: kinase inhibitor treatment of rat ventral mesencephalon (RVM) cultures transduced with E46K-synuclein; assay type: cell-based
Experimental: (§1) Rat Ventral Mesencephalon (RVM) cultures were prepared from E15 Wistar rats. The RVM cultures were cultured for 2 days and transduced with 0.75 MOI E46K-Synuclein lentivirus alone, or 0.75 MOI E46K-Synuclein lentivirus plus 0.75 MOI ca-PLK2 lentivirus. […] Transduced cultures were maintained in neuronal media with B27/1% FBS and 37° C./5% CO2 until treated with inhibitors. On DIV 17 (which corresponds to 15 days after viral transduction of the cultures) cells were treated with inhibitors for two hours. Cells were then harvested as detailed above in neuronal media with B27/1% FBS. A Micro BCA (Pierce) total protein assay, and total synuclein and phospho-synuclein ELISAs were performed on each plate of treated cells using standard methods.

[3] = molecular target: synuclein phosphorylation by constitutively active PLK2 (caPLK2); assay: kinase inhibitor treatment of RVM cultures transduced with E46K-synuclein plus ca-PLK2; assay type: cell-based; details: rat ventral mesencephalon cultures
Experimental: as §1

[4] = test system: synuclein phosphorylation (serine-129); assay: inhibition of synuclein phosphorylation across the cellular paradigms (primary neuronal cultures and 293 cells); assay type: cell-based, mouse, rat and human; details: for EC50: Homo sapiens, HEK293, most of the cellular paradigms / cell types tested, read-out: EC50 inhibition of synuclein phosphorylation, cellular paradigms
PLK2 [5] = molecular target: T1, PLK2 (Homo sapiens, UniProt Q9NYY3); assay: in vitro biochemical assay of PLK2-driven synuclein phosphorylation; details: for rank order of potency, Straight Biochemical: rank among 8 inhibitors
T1 sequence (Q9NYY3 whole entry): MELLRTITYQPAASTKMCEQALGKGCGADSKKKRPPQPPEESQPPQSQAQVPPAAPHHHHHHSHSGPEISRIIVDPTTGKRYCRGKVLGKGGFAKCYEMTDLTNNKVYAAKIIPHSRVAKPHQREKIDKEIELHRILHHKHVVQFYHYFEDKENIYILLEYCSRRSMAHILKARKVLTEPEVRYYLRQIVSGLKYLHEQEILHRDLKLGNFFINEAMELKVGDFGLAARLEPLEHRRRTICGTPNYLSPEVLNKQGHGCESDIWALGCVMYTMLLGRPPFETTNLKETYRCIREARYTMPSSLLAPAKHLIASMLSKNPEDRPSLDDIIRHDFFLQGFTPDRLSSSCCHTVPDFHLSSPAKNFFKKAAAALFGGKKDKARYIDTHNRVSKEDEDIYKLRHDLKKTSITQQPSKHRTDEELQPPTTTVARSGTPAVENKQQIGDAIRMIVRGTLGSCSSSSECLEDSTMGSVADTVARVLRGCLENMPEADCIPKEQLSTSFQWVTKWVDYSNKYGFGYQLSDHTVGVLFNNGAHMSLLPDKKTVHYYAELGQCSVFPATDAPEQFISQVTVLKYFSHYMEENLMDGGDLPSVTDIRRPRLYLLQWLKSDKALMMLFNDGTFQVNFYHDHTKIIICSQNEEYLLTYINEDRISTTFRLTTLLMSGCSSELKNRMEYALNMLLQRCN
Experimental: The reaction was incubated at 37° C. The activity was analyzed by autoradiography.
In vitro biochemical assays using each of the four PLK family members as the kinase to phosphorylate synuclein were conducted.

[6] = test system: endogenous kinase (synuclein phosphorylation); assay: HEK-293 cells overexpressing synuclein with empty vector, inhibition of synuclein phosphorylation; assay type: cell-based, human; details: for rank order of potency, Endogenous Kinase (293): Table 19
Experimental: (§2) All vectors had the sequence coding for the protein of interest. Transfection was accomplished using Lipofectamine 2000 (Invitrogen, Carlsbad, Calif.) with 0.08 μg vector. Cells were washed and harvested 48 hours post-transfection. A Micro BCA (Pierce) total protein assay and total synuclein and phospho-synuclein ELISAs were performed on each plate of treated cells.

PLK2 [7] = molecular target: T1, PLK2; assay: HEK-293 cells overexpressing synuclein and PLK2, inhibition of synuclein phosphorylation; assay type: cell-based; parameters: expressed in transfected cells; host or cells: HEK-293; details: for rank order of potency, Over-Expressed PLK2 (293): Table 19; for Rank Order of Potency Based on Percent Inhibition of Synuclein Phosphorylation, Synuclein + PLK2: HEK-293, Table 22
Experimental: as §2

PLK1 = molecular target: T2, PLK1 (Homo sapiens, UniProt P53350); assay: HEK-293 cells overexpressing synuclein and PLK1, inhibition of synuclein phosphorylation; assay type: cell-based
T2 construct: expressed in transfected cells; host or cells: HEK-293
T2 sequence (P53350 whole entry): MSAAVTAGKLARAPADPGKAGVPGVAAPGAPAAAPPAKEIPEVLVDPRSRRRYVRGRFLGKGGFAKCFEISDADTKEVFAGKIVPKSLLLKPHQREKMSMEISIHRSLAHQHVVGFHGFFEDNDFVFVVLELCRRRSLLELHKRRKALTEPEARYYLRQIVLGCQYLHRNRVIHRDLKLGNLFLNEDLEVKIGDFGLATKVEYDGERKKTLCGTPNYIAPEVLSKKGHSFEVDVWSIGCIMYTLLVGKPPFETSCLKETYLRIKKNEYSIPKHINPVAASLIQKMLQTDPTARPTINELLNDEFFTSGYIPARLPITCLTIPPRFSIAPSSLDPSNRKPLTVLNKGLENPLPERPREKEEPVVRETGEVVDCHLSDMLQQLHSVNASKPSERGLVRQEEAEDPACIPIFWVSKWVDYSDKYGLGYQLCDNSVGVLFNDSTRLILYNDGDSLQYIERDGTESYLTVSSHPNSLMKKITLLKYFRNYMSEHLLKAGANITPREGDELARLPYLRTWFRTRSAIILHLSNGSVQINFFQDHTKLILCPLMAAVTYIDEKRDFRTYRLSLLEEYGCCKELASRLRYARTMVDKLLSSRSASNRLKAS
Experimental: as §2

PLK3 = molecular target: T3, PLK3 (Homo sapiens, UniProt Q9H4B4); assay: HEK-293 cells overexpressing synuclein and PLK3, inhibition of synuclein phosphorylation; assay type: cell-based; details: for EC50: HEK-293, Example 16, Table 21, read-out: EC50 Based on the Percent Inhibition of Synuclein Phosphorylation, Synuclein + PLK3; for Rank Order of Potency Based on Percent Inhibition of Synuclein Phosphorylation, Synuclein + PLK3: HEK-293, Table 22
T3 construct: expressed in transfected cells; host or cells: HEK-293
T3 sequence (Q9H4B4 whole entry): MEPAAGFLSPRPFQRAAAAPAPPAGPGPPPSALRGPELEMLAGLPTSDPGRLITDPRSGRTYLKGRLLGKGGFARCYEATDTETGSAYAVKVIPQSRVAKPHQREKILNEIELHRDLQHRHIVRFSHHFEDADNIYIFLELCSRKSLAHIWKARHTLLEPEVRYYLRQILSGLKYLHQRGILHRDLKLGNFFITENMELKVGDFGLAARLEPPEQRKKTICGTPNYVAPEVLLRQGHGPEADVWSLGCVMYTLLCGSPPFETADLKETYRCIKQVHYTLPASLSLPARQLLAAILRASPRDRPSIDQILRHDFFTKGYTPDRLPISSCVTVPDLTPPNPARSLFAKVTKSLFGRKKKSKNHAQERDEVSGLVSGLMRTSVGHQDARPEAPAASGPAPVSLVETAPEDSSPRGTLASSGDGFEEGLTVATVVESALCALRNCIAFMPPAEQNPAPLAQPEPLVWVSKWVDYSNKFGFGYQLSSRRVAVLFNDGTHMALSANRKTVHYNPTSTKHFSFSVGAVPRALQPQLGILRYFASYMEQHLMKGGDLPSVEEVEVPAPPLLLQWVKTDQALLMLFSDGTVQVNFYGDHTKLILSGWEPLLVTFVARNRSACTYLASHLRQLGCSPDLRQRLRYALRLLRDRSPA
Experimental: as §2

PLK4 = molecular target: T4, PLK4 (Homo sapiens, UniProt O00444); assay: HEK-293 cells overexpressing synuclein and PLK4, inhibition of synuclein phosphorylation; assay type: cell-based
T4 sequence (O00444 1-970): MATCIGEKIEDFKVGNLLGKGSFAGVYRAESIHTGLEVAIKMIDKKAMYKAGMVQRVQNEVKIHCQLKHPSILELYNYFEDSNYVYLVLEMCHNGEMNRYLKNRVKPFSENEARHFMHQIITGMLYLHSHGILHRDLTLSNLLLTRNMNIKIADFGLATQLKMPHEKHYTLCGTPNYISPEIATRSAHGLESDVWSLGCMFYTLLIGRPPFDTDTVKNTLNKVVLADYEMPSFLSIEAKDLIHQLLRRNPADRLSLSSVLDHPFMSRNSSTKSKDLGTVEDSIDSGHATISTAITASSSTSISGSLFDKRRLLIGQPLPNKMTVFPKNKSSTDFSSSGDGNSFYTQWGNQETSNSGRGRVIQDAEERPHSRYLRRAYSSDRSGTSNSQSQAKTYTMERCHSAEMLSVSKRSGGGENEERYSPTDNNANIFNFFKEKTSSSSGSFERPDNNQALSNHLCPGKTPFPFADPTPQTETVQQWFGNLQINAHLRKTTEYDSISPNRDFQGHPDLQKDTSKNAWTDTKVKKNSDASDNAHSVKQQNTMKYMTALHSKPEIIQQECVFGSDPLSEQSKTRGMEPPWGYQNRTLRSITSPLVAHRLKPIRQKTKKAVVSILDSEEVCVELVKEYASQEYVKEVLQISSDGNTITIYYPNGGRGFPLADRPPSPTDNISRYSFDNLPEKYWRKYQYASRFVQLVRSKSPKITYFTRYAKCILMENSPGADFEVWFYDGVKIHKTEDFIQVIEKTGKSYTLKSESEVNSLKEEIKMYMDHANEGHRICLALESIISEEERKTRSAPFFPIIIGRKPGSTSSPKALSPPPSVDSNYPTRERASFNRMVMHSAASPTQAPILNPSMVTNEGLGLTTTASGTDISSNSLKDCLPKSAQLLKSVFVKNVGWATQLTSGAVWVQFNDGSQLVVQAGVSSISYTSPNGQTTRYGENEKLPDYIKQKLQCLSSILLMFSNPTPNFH
Experimental: as §2

[8] = E46K-Synuclein transgenic mouse cortical cultures, read-out: EC50, E46K-Syn TG MCC
[9] = WT mouse cortical cultures, read-out: EC50, WT-MCC
[10] = 293 cells, Table 18, read-out: EC50, Over-Expressed PLK2 (293)
[11] = PLK2-driven synuclein phosphorylation, read-out: IC50 in the in vitro biochemical assay
[12] = Homo sapiens, HEK293, HEK-293, Example 16, Table 21, read-out: EC50 Based on the Percent Inhibition of Synuclein Phosphorylation, Synuclein + Vector

| Compound | EC50 [1, 8] [µM] | EC50 [1, 9] [µM] | EC50 [2] [µM] | EC50 [3] [µM] | EC50 (PLK2 [7]; [10]) [µM] | EC50 [4] [µM] | IC50 (PLK2 [5]; [11]) [µM] | rank order of potency, Straight Biochemical (PLK2 [5]) | rank order of potency, Endogenous Kinase (293) ([6]; 293 cells) | EC50 [6, 12] [µM] | EC50 (PLK3) [µM] | Rank Order of Potency Based on Percent Inhibition of Synuclein Phosphorylation, Synuclein + PLK3 (PLK3) | rank order of potency, Over-Expressed PLK2 (293) (PLK2 [7]; 293 cells) | Rank Order of Potency Based on Percent Inhibition of Synuclein Phosphorylation, Synuclein + PLK2 (PLK2 [7]) | other results |
| --- | --- | --- | --- | --- | --- | --- | --- | --- | --- | --- | --- | --- | --- | --- | --- |
| Scytonemin | > 100 | > 100 | > 100 | > 100 | > 100 |  |  |  |  |  |  |  |  |  | inhibition of 50% of synuclein phosphorylation in cells ([4]; cell types tested): did not inhibit 50%; inhibition of 50% of synuclein phosphorylation in the in vitro assay (PLK2 [5]; PLK2-driven phosphorylation in vitro): did not inhibit 50%; IC50 (PLK2 [5]; in vitro PLK2-driven synuclein phosphorylation, read-out: IC50, Straight Biochemical): > 100 µM; EC50 ([6]; 293 cells, Table 18, read-out: EC50, Endogenous Kinase (293)): > 100 µM |
| CN(C)c1nc2c(Br)c(Br)c(Br)c(Br)c2[nH]1 [DMAT, 2-Dimethylamino-4,5,6,7-tetrabromo-1H-benzimidazole] | 16.6 | 18.7 | 20 | 28.5 | 18.6 | 16 to 33 | 2.07 | 2 | 3 | 55.7 | 37.3 | 2 | 4 | 2 | rank order of potency, E46K-Syn TG MCC ([1]; E46K-Synuclein transgenic mouse cortical cultures): 4; rank order of potency, Swiss-Webster MCC ([1]; Swiss-Webster mouse cortical cultures): 4; EC50 ([1]; Swiss-Webster mouse cortical cultures, read-out: EC50, Swiss-Webster MCC): 21.6 µM; rank order of potency, WT-MCC ([1]; WT mouse cortical cultures): 4; rank order of potency, RVM E46K-Synuclein [2]: 4; rank order of potency, RVM E46K-Synuclein caPLK2 [3]: 4; Rank Order of Potency Based on Percent Inhibition of Synuclein Phosphorylation, Synuclein + Vector ([6]; HEK-293, Table 22): 2; EC50 ([6]; Homo sapiens, HEK293, 293 cells, Table 18, read-out: EC50, Endogenous Kinase (293)): 33 µM; EC50 ([6]; Homo sapiens, HEK293, HEK-293, synuclein only, read-out: EC50 synuclein phosphorylation, endogenous kinase): 56 µM; EC50 (PLK1; HEK-293, Example 16, Table 21, read-out: EC50 Based on the Percent Inhibition of Synuclein Phosphorylation, Synuclein + PLK1): 27.2 µM; Rank Order of Potency Based on Percent Inhibition of Synuclein Phosphorylation, Synuclein + PLK1 (PLK1; HEK-293, Table 22): 3; Rank Order of Potency Based on Percent Inhibition of Synuclein Phosphorylation, Synuclein + PLK4 (PLK4; HEK-293, Table 22): 2; EC50 (PLK2 [7]; HEK-293, Example 16, Table 21, read-out: EC50 Based on the Percent Inhibition of Synuclein Phosphorylation, Synuclein + PLK2): 13.9 µM |
| NC(=O)c1sc2c([N+](=O)[O-])cc(C(F)(F)F)cc2[n+]1[O-] [ELN-481080] |  |  | ~100 | 25.2 | 38 | 12 to 38 | 7.7 | 3 | 4 | > 100 | > 100 | 3 | 5 | 3 | EC50 ([6]; Homo sapiens, HEK293, read-out: EC50, Endogenous Kinase (293)): ~100 µM; EC50 ([6]; Homo sapiens, HEK293, read-out: EC50 synuclein phosphorylation, endogenous kinase, previous experiments): ~100 µM; EC50 synuclein phosphorylation, over-expressed PLK3 (PLK3; HEK-293): not reached; inhibition of synuclein phosphorylation, over-expressed PLK3 (PLK3; at concentrations of 30-100 μM): 30-40%; EC50 synuclein phosphorylation, over-expressed PLK4 (PLK4; HEK-293): not reached |
| Brc1c(Br)c(Br)c2[nH]nnc2c1Br [TBB] |  |  |  |  |  |  |  |  |  |  |  |  |  |  | effect on synuclein phosphorylation ([1]; MCC, even at concentrations of 100 μM): no effect |
